Results: ChEMBL document CHEMBL2311351, “Synthesis and biological evaluation of triazolothienopyrimidine derivatives as novel HIV-1 replication inhibitors” (Bioorg Med Chem Lett, 2013)

Tests used:
[1] = test system: Human immunodeficiency virus 1; assay: Antiviral activity against HIV1 LAI infected in CEMx174-LTR-GFP cells assessed as inhibition of viral replication after 5 days by fluorescence assay; type: functional, organism-based
[2] = Therapeutic index, ratio of CC50 for human CEmx174 cells expressing LTR-GFP to EC50 for HIV1 LAI; conditions: read-out: Ratio CC50/EC50
[3] = Cytotoxicity against human CEmx174 cells expressing LTR-GFP; type: cell-based
[4] = test system: Human immunodeficiency virus 1; assay: Antiviral activity against HIV1 LAI infected in CEMx174-LTR-GFP cells assessed as inhibition of viral replication at 10 uM after 5 days by fluorescence assay; type: functional; conditions: Human immunodeficiency virus 1, LAI, 120 h
[5] = Human immunodeficiency virus 1, LAI, 120 h, read-out: EC50

EC50 [1, 5] [µM] | EC50 [1] | SMILES | selectivity ratio [2] | CC50 [3] [µM] | inhibition at 10 µM [4] [%]
0.19 | – | O=S(=O)(c1cccc(Cl)c1)c1nnn2c1nc(N1CCCCC1)c1sccc12 | 394 | 75 | –
5 | – | O=S(=O)(c1ccc(Cl)cc1)c1nnn2c1nc(N1CCOCC1)c1sccc12 | 14 | 70 | –
1.3 | – | COc1ccccc1-c1nc2c(S(=O)(=O)c3cccc(Cl)c3)nnn2c2ccsc12 | 34 | 45 | –
1.6 | – | Nc1nc2c(S(=O)(=O)c3cccc(Cl)c3)nnn2c2ccsc12 | > 31 | > 50 | –
1.1 | – | O=S(=O)(c1ccccc1Cl)c1nnn2c1nc(N1CCOCC1)c1sccc12 | 50 | 56 | –
0.06 | – | COc1ccc(-c2nc3c(S(=O)(=O)c4cccc(Cl)c4)nnn3c3ccsc23)cc1 | 1000 | 60 | –
6.7 | – | O=S(=O)(c1cccc(Cl)c1)c1nnn2c1nc(NC1CCCCC1)c1sccc12 | > 7.4 | > 50 | –
0.27 | – | O=S(=O)(c1cccc(Cl)c1)c1nnn2c1nc(N1CCOCC1)c1sccc12 | 274 | 74 | –
– | Not Active | CCS(=O)(=O)c1nnn2c1nc(N1CCOCC1)c1sccc12 | – | > 50 | –
16 | – | O=C(Nc1ccc(Cl)cc1)c1nnn2c1nc(N1CCOCC1)c1sccc12 | 3.5 | 57 | –
3.5 | – | O=C(Nc1ccccc1Cl)c1nnn2c1nc(N1CCOCC1)c1sccc12 | > 14 | > 50 | –
0.37 | – | O=C(Nc1cccc(Cl)c1)c1nnn2c1nc(N1CCOCC1)c1sccc12 | > 135 | > 50 | –
16 | – | O=S(=O)(c1ccccc1)c1nnn2c1nc(N1CCOCC1)c1sccc12 | 2.4 | 39 | –
0.53 | – | O=S(=O)(c1cccc(Cl)c1)c1nnn2c1nc(-c1ccc(Cl)cc1)c1sccc12 | 86 | 46 | –
3.1 | – | CN(C)c1ccc(-c2nc3c(S(=O)(=O)c4cccc(Cl)c4)nnn3c3ccsc23)cc1 | > 16 | > 50 | –
0.93 | – | O=C(c1cccc(Cl)c1)c1nnn2c1nc(N1CCOCC1)c1sccc12 | > 53 | > 50 | –
3.3 | – | O=S(=O)(c1cccc(Br)c1)c1nnn2c1nc(N1CCOCC1)c1sccc12 | > 15 | > 50 | –
0.51 | – | CCOc1ccc(-c2nc3c(S(=O)(=O)c4cccc(Cl)c4)nnn3c3ccsc23)cc1 | 119 | 61 | –
4 | – | O=S(=O)(c1cccc(Cl)c1)c1nnn2c1nc(N1CCCCCC1)c1sccc12 | 8.7 | 35 | –
4 | – | O=S(=O)(c1cc(Cl)cc(Cl)c1)c1nnn2c1nc(N1CCOCC1)c1sccc12 | 12.7 | 51 | –

EC50 [1, 5] [µM] | EC50 [1] | SMILES | selectivity ratio [2] | CC50 [3] [µM] | inhibition at 10 µM [4] [%]
0.71 | – | O=S(=O)(c1cccc(Cl)c1)c1nnn2c1nc(N1CCN(Cc3ccccc3)CC1)c1sccc12 | > 70 | > 50 | –
2.3 | – | O=S(=O)(c1cccc(Cl)c1)c1nnn2c1nc(Nc1ccccc1)c1sccc12 | > 21 | > 50 | –
0.32 | – | COc1cccc(-c2nc3c(S(=O)(=O)c4cccc(Cl)c4)nnn3c3ccsc23)c1 | 143 | 46 | –
10 | – | O=S(=O)(c1cccc(OC(F)(F)F)c1)c1nnn2c1nc(N1CCOCC1)c1sccc12 | > 5 | > 50 | –
0.85 | – | O=S(=O)(c1cccc(F)c1)c1nnn2c1nc(N1CCOCC1)c1sccc12 | > 58 | > 50 | –
9.84 | – | Cc1ccc(S(=O)(=O)c2nnn3c2nc(NCCC(C)C)c2sccc23)cc1C | – | – | –
2.1 | – | CN(c1ccccc1)c1nc2c(S(=O)(=O)c3cccc(Cl)c3)nnn2c2ccsc12 | > 23 | > 50 | –
2.1 | – | CN1CCN(c2nc3c(S(=O)(=O)c4cccc(Cl)c4)nnn3c3ccsc23)CC1 | > 23 | > 50 | –
0.27 | – | O=S(=O)(c1cccc(Cl)c1)c1nnn2c1nc(-c1ccccc1)c1sccc12 | 225 | 61 | –
– | Not Active | O=S(=O)(c1nnn2c1nc(N1CCOCC1)c1sccc12)C1CCCCC1 | – | > 50 | –
0.8 | – | CCOC(=O)c1nnn2c1nc(N1CCOCC1)c1sccc12 | > 62 | > 50 | –
0.84 | – | Cc1ccc(-c2nc3c(S(=O)(=O)c4cccc(Cl)c4)nnn3c3ccsc23)cc1 | 72 | 61 | –
0.87 | – | O=S(=O)(c1cccc(Cl)c1)c1nnn2c1nc(-c1ccc(O)cc1)c1sccc12 | 11 | 10 | –
1.9 | – | COCCNc1nc2c(S(=O)(=O)c3cccc(Cl)c3)nnn2c2ccsc12 | > 26 | > 50 | –
– | – | CC(C)CCNc1nc2c(S(=O)(=O)c3cccc(Cl)c3)nnn2c2ccsc12 | – | – | 58
4.8 | – | O=C(O)c1nnn2c1nc(N1CCOCC1)c1sccc12 | 8.7 | 42 | –
0.67 | – | O=S(=O)(c1cccc(Cl)c1)c1nnn2c1nc(-c1ccccc1Cl)c1sccc12 | > 74 | > 50 | –
0.54 | – | O=S(=O)(c1cccc(Cl)c1)c1nnn2c1nc(-c1cccc(Cl)c1)c1sccc12 | 87 | 47 | –
1.1 | – | COc1cccc(S(=O)(=O)c2nnn3c2nc(N2CCOCC2)c2sccc23)c1 | > 45 | > 50 | –
2.2 | – | CC(C)Nc1nc2c(S(=O)(=O)c3cccc(Cl)c3)nnn2c2ccsc12 | > 22 | > 50 | –

SMILES | EC50 [1, 5] [µM] | EC50 [1] | selectivity ratio [2] | CC50 [3] [µM] | inhibition at 10 µM [4] [%]
Cc1ccnc2c1NC(=O)c1cccnc1N2C1CC1 [NEVIRAPINE] | 0.15 | – | – | > 10 | –
